We go through two compounds from ChEMBL document CHEMBL1127208, “Centaureidin, a cytotoxic flavone from Polymnia fruticosa, inhibits tubulin polymerization” (Bioorg Med Chem Lett, 1993).

What is called inhibition is the relative decrease from the control value, in per cent. Low values mean a weak effect, high ones a strong effect. A word on the IC50: it is the concentration that inhibits the measured activity by half.

The target in experiment [1] is Tubulin alpha chain (Sus scrofa) (UniProt P02550). Nature of the experiment: Tested for the inhibition using the binding of 5 uM [3H]colchicine to purified tubulin at 37 degree Centigrade.
Experiment [2] in a line: Tested for the cytotoxicity concentration in CA46 burkitt lymphoma cells. The experiment is classed as functional, cell-based. Conditions: Homo sapiens.
Experiment [3] has as its target Tubulin alpha chain (Sus scrofa, UniProt P02550). Briefly: Tested for 50 % inhibition of tubulin polymerization by turbidimetric assay.

The structures appear in SMILES notation.

Tubulin alpha chain (Sus scrofa), sequence (P02550 whole entry, looked up): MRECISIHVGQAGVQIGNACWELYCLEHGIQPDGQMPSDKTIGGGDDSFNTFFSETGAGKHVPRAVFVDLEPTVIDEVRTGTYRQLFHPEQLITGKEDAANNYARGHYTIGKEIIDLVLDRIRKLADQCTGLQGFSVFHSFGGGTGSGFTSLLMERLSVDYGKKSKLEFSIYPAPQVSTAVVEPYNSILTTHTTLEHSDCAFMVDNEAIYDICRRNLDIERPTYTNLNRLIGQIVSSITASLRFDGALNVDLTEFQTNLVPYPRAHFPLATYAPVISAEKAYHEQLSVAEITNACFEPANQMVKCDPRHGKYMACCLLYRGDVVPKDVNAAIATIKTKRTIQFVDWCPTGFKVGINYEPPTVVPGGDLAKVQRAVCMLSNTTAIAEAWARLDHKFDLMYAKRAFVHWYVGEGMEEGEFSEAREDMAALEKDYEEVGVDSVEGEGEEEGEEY
Tubulin alpha chain, sequence (P02550 whole entry, looked up): as above

For the compound `COc1cc([C@@H]2c3cc4c(cc3[C@H](O)[C@H]3COC(=O)[C@H]23)OCO4)cc(OC)c1OC`, the inhibition in experiment [1] was determined as 84%. Take `COc1ccc(-c2oc3cc(O)c(OC)c(O)c3c(=O)c2OC)cc1O` [CENTAUREIDIN]: the figures for the IC50 in experiment [2] and in experiment [3] were 200 nM and 3000 nM, respectively.
